According to ChEMBL document CHEMBL2401690, “Discovery of RG7388, a potent and selective p53-MDM2 inhibitor in clinical development” (J Med Chem, 2013):
pIC50: −log10 of the molar value.

Columns and labels:
[1] = Oral bioavailability in C57 mouse at 50 mg/kg; type: ADME, organism-based; conditions: in vivo
[2] = Apparent terminal half-life in C57 mouse at 5 mg/kg, iv; type: ADME, organism-based; design: dose 5 mg/kg, route intravenous; conditions: in vivo, read-out: betat1/2(app) (converted)
[3] = Total plasma clearance in C57 mouse at 5 mg/kg, iv; type: ADME, organism-based; design: dose 5 mg/kg, route intravenous
[4] = Cmax in C57 mouse at 50 mg/kg, po; type: ADME, organism-based; design: dose 50 mg/kg, route oral; conditions: in vivo
[5] = Clearance in human liver microsomes at […] by LC-MS/MS analysis; type: ADME, Microsome
MDA-MB-435 = assay: cells; conditions: Homo sapiens
Description: Cytotoxicity against human MDA-MB-435 cells expressing p53 mutant assessed as growth inhibition by MTT assay

SW480 = assay: cells; conditions: Homo sapiens
Description: Cytotoxicity against human SW480 cells expressing p53 mutant assessed as growth inhibition by MTT assay

SJSA-1 [6] = assay: cells; conditions: Homo sapiens
Description: Cytotoxicity against human SJSA1 cells expressing wild type p53 assessed as growth inhibition by MTT assay

RKO = assay: cells; conditions: Homo sapiens
Description: Cytotoxicity against human RKO cells expressing wild type p53 assessed as growth inhibition by MTT assay

HCT-116 = assay: cells; conditions: Homo sapiens
Description: Cytotoxicity against human HCT116 cells expressing wild type p53 assessed as growth inhibition by MTT assay

[7] = Oral bioavailability in C57 mouse at 20 mg/kg; type: ADME, organism-based; conditions: in vivo
[8] = Cmax in C57 mouse at 20 mg/kg, po; type: ADME, organism-based; design: dose 20 mg/kg, route oral; conditions: in vivo
[9] = AUC in nude mouse xenografted with human SJSA1 cells at 12.5 mg/kg, po; type: ADME, organism-based, SJSA-1; design: dose 12.5 mg/kg, route oral; conditions: in vivo
[10] = AUC in nude mouse xenografted with human SJSA1 cells at 25 mg/kg, po; type: ADME, organism-based, SJSA-1; design: dose 25 mg/kg, route oral; conditions: in vivo
SJSA-1 [11] = assay: Antitumor activity against human SJSA1 cells xenografted in nude mouse assessed as tumor growth inhibition at 25 mg/kg, po after 2 weeks relative to control; type: functional; conditions: SJSA-1, 336 h, read-out: TGI
SJSA-1 [12] = assay: Antitumor activity against human SJSA1 cells xenografted in nude mouse assessed as tumor growth inhibition at 12.5 mg/kg, po after 2 weeks relative to control; type: functional; conditions: SJSA-1, 336 h, read-out: TGI
SJSA-1 [13] = assay: Induction of apoptosis in human SJSA1 cells after 48 hrs by annexin V staining assay; type: functional, cell-based
SJSA-1 [14] = assay: Cell cycle arrest in human SJSA1 cells assessed as accumulation at G2/M phase after 24 hrs; type: functional, cell-based
[15] = biological target: E3 ubiquitin-protein ligase Mdm2 (Homo sapiens) (UniProt Q00987); assay: Inhibition of MDM2 in human SJSA1 cells assessed as induction of p53 stabilization after 20 hrs by Western blot analysis; type: cell-based; conditions: SJSA-1
SJSA-1 [16] = assay: Cell cycle arrest in human SJSA1 cells assessed as accumulation at G1 phase after 24 hrs; type: functional, cell-based
[17] = Oral bioavailability in C57 mouse at 25 mg/kg; type: ADME, organism-based; conditions: in vivo
[18] = Apparent terminal half-life in C57 mouse at 3.6 mg/kg, iv; type: ADME, organism-based; design: dose 3.6 mg/kg, route intravenous; conditions: in vivo, read-out: betat1/2(app) (converted)
[19] = Total plasma clearance in C57 mouse at 3.6 mg/kg, iv; type: ADME, organism-based; design: dose 3.6 mg/kg, route intravenous
[20] = Cmax in C57 mouse at 25 mg/kg, po; type: ADME, organism-based; design: dose 25 mg/kg, route oral; conditions: in vivo
[21] = AUC in nude mouse xenografted with human SJSA1 cells at 100 mg/kg, po; type: ADME, organism-based, SJSA-1; design: dose 100 mg/kg, route oral; conditions: in vivo
[22] = AUC in nude mouse xenografted with human SJSA1 cells at 50 mg/kg, po; type: ADME, organism-based, SJSA-1; design: dose 50 mg/kg, route oral; conditions: in vivo
[23] = Clearance in nude mouse at 5 mg/kg, iv; type: ADME, organism-based; design: dose 5 mg/kg, route intravenous; conditions: in vivo
[24] = Half life in nude mouse at 5 mg/kg, iv; type: ADME, organism-based; design: dose 5 mg/kg, route intravenous; conditions: in vivo
SJSA-1 [25] = assay: Antitumor activity against human SJSA1 cells xenografted in nude mouse assessed as tumor growth inhibition at 100 mg/kg, po after 2 weeks relative to control; type: functional; conditions: SJSA-1, 336 h, read-out: TGI
SJSA-1 [26] = assay: animal or person; conditions: Mus musculus, SJSA-1, po, 336 h, read-out: TGI
Description: Antitumor activity against human SJSA1 cells xenografted in nude mouse assessed as tumor growth inhibition at 50 mg/kg, po after 2 weeks relative to control

[27] = Oral bioavailability in nude mouse at 50 mg/kg; type: ADME, organism-based; conditions: in vivo
[28] = Cmax in nude mouse at 50 mg/kg, po; type: ADME, organism-based; design: dose 50 mg/kg, route oral; conditions: in vivo

E3 ubiquitin-protein ligase Mdm2 (Homo sapiens), sequence (Q00987 whole entry, looked up): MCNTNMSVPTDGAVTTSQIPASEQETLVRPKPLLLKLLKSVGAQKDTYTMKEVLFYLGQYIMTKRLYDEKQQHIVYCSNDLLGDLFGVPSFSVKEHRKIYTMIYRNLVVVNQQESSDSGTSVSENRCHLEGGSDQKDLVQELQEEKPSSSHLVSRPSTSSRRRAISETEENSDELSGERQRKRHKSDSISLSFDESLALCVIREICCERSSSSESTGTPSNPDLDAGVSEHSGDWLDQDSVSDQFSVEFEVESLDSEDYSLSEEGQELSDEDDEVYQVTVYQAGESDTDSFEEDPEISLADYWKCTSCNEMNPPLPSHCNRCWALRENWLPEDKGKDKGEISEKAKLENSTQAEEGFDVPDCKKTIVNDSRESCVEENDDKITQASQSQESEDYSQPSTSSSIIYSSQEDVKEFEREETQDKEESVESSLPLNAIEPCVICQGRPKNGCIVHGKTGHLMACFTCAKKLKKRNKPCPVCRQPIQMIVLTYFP

Row | SMILES | bioavailability [1] [%] | half-life [2] [min] | clearance [3] [mL/min/kg] | Cmax [4] [ng/mL] | CLhep predicted [5] [mL/min/kg] | pIC50 (MDA-MB-435) | pIC50 (SW480) | pIC50 (SJSA-1 [6]) | pIC50 (RKO) | pIC50 (HCT-116) | other results
1 | CC(C)(C)C[C@@H]1N[C@@H](C(=O)Nc2ccc(C(=O)O)cc2F)[C@H](c2cccc(Cl)c2F)[C@@]1(C#N)c1ccc(Cl)cc1F | 100 | 186 | 11.5 | 18000 | 7 | 4.93 | 4.87 | 7.05 | 6.30 | 6.70 | –
2 | CC(C)(C)C[C@@H]1N[C@@H](C(=O)Nc2cccc(C(=O)O)c2)[C@H](c2cccc(Cl)c2F)[C@@]1(C#N)c1ccc(Cl)cc1F | – | – | – | – | – | 5.01 | 4.81 | 6.80 | 5.81 | 6.39 | –
3 | CC(C)(C)C[C@@H]1N[C@@H](C(=O)NCC[C@H](O)CO)[C@H](c2cccc(Cl)c2F)[C@@]1(C#N)c1ccc(Cl)cc1F | – | 31.2 | 51.7 | – | 19.9 | – | 4.77 | 5.68 | – | – | bioavailability [7]: 3.6%; Cmax [8]: 300 ng/mL
4 | CC(C)(C)C[C@@H]1N[C@@H](C(=O)NCC[C@H](O)CO)[C@H](c2cccc(Cl)c2)[C@@]1(C#N)c1ccc(Cl)cc1 | – | 26.4 | 52.9 | – | 18.7 | 4.84 | 4.52 | 5.68 | 5.52 | 5.47 | bioavailability [7]: 6.2%; Cmax [8]: 500 ng/mL
5 | COc1cc(C(=O)O)ccc1NC(=O)[C@@H]1N[C@@H](CC(C)(C)C)[C@](C#N)(c2ccc(Cl)cc2F)[C@H]1c1cccc(Cl)c1F [IDASANUTLIN] | 80 | 96 | 10.3 | 9900 | 4.3 | 5.04 | 4.88 | 8.00 | 7.15 | 8.00 | AUC [9]: 23000 ng·h/mL; AUC [10]: 29000 ng·h/mL; inhibition in vivo at 25 mg/kg (SJSA-1 [11]): > 100%; inhibition in vivo at 12.5 mg/kg (SJSA-1 [12]): 88%; Activity (SJSA-1 [13]): Dose-dependent effect; Activity (SJSA-1 [14]): Dose-dependent effect; inhibition [15]: Dose-dependent effect; Activity (SJSA-1 [16]): Dose-dependent effect
6 | CC(C)(C)C[C@@H]1N[C@@H](C(=O)Nc2ccn(CC(C)(C)O)n2)[C@H](c2cccc(Cl)c2F)[C@@]1(C#N)c1ccc(Cl)cc1F | – | – | – | – | 4.2 | 5.07 | 5.20 | 5.88 | 5.85 | 5.85 | bioavailability [17]: < 1%; half-life [18]: 88.8 min; clearance [19]: 19.8 mL/min/kg; Cmax [20]: 10 ng/mL
7 | CCOc1cc(C(C)(C)C)ccc1C1=N[C@@](C)(c2ccc(Cl)cc2)[C@@](C)(c2ccc(Cl)cc2)N1C(=O)N1CCN(CCCS(C)(=O)=O)CC1 [RO-5045337] | – | – | – | – | 5.8 | – | – | – | – | – | AUC [21]: 380 µg·h/mL; AUC [22]: 200 µg·h/mL; clearance [23]: 8.6 mL/min/kg; half-life [24]: 162 min; inhibition in vivo at 100 mg/kg (SJSA-1 [25]): > 100%; inhibition in vivo at 50 mg/kg (SJSA-1 [26]): 74%
8 | CC(C)(C)C[C@@H]1N[C@@H](C(=O)Nc2ccc(C(=O)O)c(F)c2)[C@H](c2cccc(Cl)c2F)[C@@]1(C#N)c1ccc(Cl)cc1F | 49 | 264 | 18.4 | 3800 | 12.2 | 4.95 | 4.80 | 7.30 | 6.36 | 6.85 | –
9 | COc1cc(NC(=O)[C@@H]2N[C@@H](CC(C)(C)C)[C@](C#N)(c3ccc(Cl)cc3F)[C@H]2c2cccc(Cl)c2F)ccc1C(=O)O | 56 | 288 | 21.8 | 4100 | 6.6 | 5.21 | 4.74 | 7.52 | 6.85 | 7.40 | –
10 | CC(C)(C)C[C@@H]1N[C@@H](C(=O)Nc2ccc(C(=O)O)cn2)[C@H](c2cccc(Cl)c2F)[C@@]1(C#N)c1ccc(Cl)cc1F | 53 | 61.8 | 29.7 | 3000 | 8.9 | 4.95 | 4.86 | 7.30 | 6.40 | 7.05 | –
11 | CC(C)(C)C[C@@H]1N[C@@H](C(=O)Nc2ccc(C(=O)O)cc2)[C@H](c2cccc(Cl)c2F)[C@@]1(C#N)c1ccc(Cl)cc1F | – | – | – | – | 4.9 | 4.95 | 4.86 | 7.40 | 6.68 | 7.05 | bioavailability [27]: 83%; clearance [23]: 13.8 mL/min/kg; half-life [24]: 260 min; Cmax [28]: 12000 ng/mL
12 | CC(C)(C)C[C@@H]1N[C@@H](C(=O)Nc2ccc3cc(C(=O)O)ccc3c2)[C@H](c2cccc(Cl)c2F)[C@@]1(C#N)c1ccc(Cl)cc1F | 27 | 84.6 | 24.5 | 1700 | 9.4 | 5.04 | 4.91 | 7.40 | 6.55 | 6.85 | –
